Marks after values point to notes of the source that are not given here.
How the values were obtained:
[1] = Solubility of photoreactive compounds in 1×TE; type: physicochemical; conditions: excess compound heated 50-70° C., stirred at room temperature, filtered; optical density
Protocol: The solubilities of AMIP, AMDMIP, DMIP, MIP and isopsoralen (IP) were determined experimentally according to the scheme set forth in FIG. 5. To perform the solubility measurement, it was first necessary to establish known optical densities for a 1 μg/ml solution of each compound. These were determined by preparing either ethanolic or aqueous stocks of each compound at known concentrations in 1×TE, then measuring the optical density of each solution. From this information, the absorption of a 1 μg/ml solution was computed. Alternatively, the extinction coefficient may be thus determined and used in the same fashion. In this manner, the following absorption data was collected:
Following this step, undissolved compound was removed by filtration using a 0.2 u nylon-66 syringe filter (Arco LC13; Gelman). The concentration of the remaining soluble compound was then determined by measuring the optical density of the filtrate and computing the solubility from the known optical density of a 1 μg/ml solution of that compound. The solubility of the compounds was thus determined to be as follows: […]

calf thymus DNA = experiment: Covalent photobinding to calf thymus DNA (Example 38); type: binding; conditions: for actual concentration obtained empirically: nominal 100 μg/ml in calf thymus DNA/1×TE, counted after sitting overnight at room temperature
Protocol: FIG. 17 can again be referred to as a flow chart schematically showing the manner in which covalent binding was measured for the compounds synthesized by the methods of the present invention. ^3H-AMIP (3.1×10^5 cpm/μg), ^3H-AMDMIP (2.2×10^5 cpm/μg), and ^3H-MIP (2.1×10^5 cpm/μg) were added to 300 μl of calf thymus DNA (Sigma) in 1×TE buffer. All of the isopsoralen compounds were added at a nominal concentration of 100 μg/ml. However, actual concentrations obtained empirically (counted after sitting overnight at room temperature) were: ^3H-AMIP (105 μg/ml), ^3H-AMDMIP (115 μg/ml), and ^3H-MIP (<10 μg/ml).
To assess binding, three samples were prepared for each compound; two were irradiated (15 minutes at 25° C. with the CE-I device) while one was unirradiated as a control. Following irradiation, the samples were extracted four times with CHCl3 then precipitated twice. The final pellet was brought up in 2 ml of 1×TE buffer and resuspended by shaking at 40° C. overnight. 50 μl of each sample was then diluted to 0.5 mls with H2O. The concentration of DNA was determined by UV absorption (A260) and the amount of covalently bound isopsoralen (“adduct”) was determined by scintillation counting (3×100 μl aliquots). From these numbers, the following binding ratios (adducts: DNA base pair) were determined: […]

Klenow Polmerase = experiment: Primer extension on monoadducted 71-mer, Klenow polymerase; type: biochemical; conditions: 37° C., 0, 5 or 15 minutes
[2] = test system: 115-mer (SK-38/SK-39 HIV system); experiment: Sterilization sensitivity, 115-mer PCR product; type: biochemical; conditions: CE-III 15 minutes, 30 cycles
Text: (§1) As discussed generally for sterilization, it is expected that the sensitivity of sterilization will depend upon both the modification density and the length of the PCR target sequences. In this experiment, the effect of modification density and target length on sterilization sensitivity were examined by sterilizing two different length PCR products with either AMIP or AMDMIP. Each isopsoralen was used at two different concentrations for the sterilization procedure to produce differing modification densities on PCR targets.
(§2) The two PCR targets used in these experiments were a 115-mer (SK-38/SK-39 HIV system) and a 500-mer. The 500-mer target is obtained from a PCR amplification of a lambda plasmid with primers PCR 01/02. This system is provided by Cetus/Perkin Elmer as a control in their commercial kits of PCR reagents (Catalogue No. N801-0055). For both of these systems equivalent copy numbers of each target were prepared in the following manner: An initial 30 cycle PCR reaction was carried out for each system with the appropriate primers and targets. Aliquots (approximately 10^5-10^6 target copies) of each of these reactions were transferred to a second set of PCR reactions. These second sets of PCR amplifications were carried out in the presence of α-32P-dCTP, again for 30 cycles. Aliquots of these reactions were removed and counted by liquid scintillation counting. With these numbers, the specific activity of the α-32P-dCTP, and the sequence of each of the PCR product oligonucleotides (115-mer and 500-mer), the concentrations of each of the two PCR product oligonucleotides in the second set of PCR reaction tubes was determined. Both the 115-mer and the 500-mer concentrations were then adjusted to exactly 1×10^−8M by the addition of additional Taq buffer. These stocks of equivalent copy number of PCR products were then used for further investigation. Each of the stock solutions then was subdivided into four reaction tubes. The reaction tubes were adjusted to contain the following: Tube 1, 100 μg/ml AMIP; Tube 2, 400 μg/ml AMIP; Tube 3, 100 μ/ml AMDMIP: and Tube 4, 400 μg/ml AMDMIP. Each of these samples were again split into two portions, one part being irradiated for 15 minutes at room temperature with the CE-III device and the other part kept in the dark. Serial dilutions of the irradiated and the unirradiated targets were then carried out on these samples for 30 cycles in the presence of α-32P-CTP. Aliquots of these samples were analyzed on denaturing polyacrylamide gels. The PCR product bands were visualized by autoradiography, cut, and counted in a liquid scintillation counter.

[3] = test system: 500-mer (lambda plasmid, primers PCR 01/02); experiment: Sterilization sensitivity, 500-mer PCR product; type: biochemical; conditions: CE-III 15 minutes, 30 cycles
Text: as §1, §2

SMILES	Solubility in 1 × TE [1]	actual concentration obtained empirically (calf thymus DNA) [µg/mL]	block of primer extension by 71-mer monoadduct (Klenow Polmerase)	sterilization sensitivity (carryover sterilized) ([2]; 100 μg/ml)	sterilization sensitivity (carryover sterilized) ([2]; 400 μg/ml)	sterilization sensitivity (carryover sterilized) ([3]; 100 μg/ml)	sterilization sensitivity (carryover sterilized) ([3]; 400 μg/ml)	modification density relative to that provided by AMDMIP (calf thymus DNA; photobinding at the same concentration) [%]
Cc1cc2occc2c2oc(=O)ccc12 [MIP, 5-Methylisopsoralen]	nd (nd = not detectable (solubility was less than 1 μg/ml))	< 10	not complete stops					
Cc1oc2ccc3c(C)cc(=O)oc3c2c1CN [AMDMIP, 4′-Aminomethyl-4,5′-dimethylisopsoralen]	>22,700* ug/ml	115	complete stop	better sterilization agent	≥ 6×10^9 carryover molecules	≥ 6×10^9 carryover molecules	no signal in the irradiated dilution series	
NCc1cc2occc2c2oc(=O)ccc12 [AMIP, 5-Aminomethylisopsoralen]	21,000 ug/ml	105	not complete stops	about 10,000 molecules of carryover	about 10^6 carryover molecules	more effectively sterilized than the 115-mer PCR product	≥ 6×10^9 molecules of carryover	43
